Results as given in patent publication US20140242093A1, “METHODS AND COMPOSITIONS FOR MODULATING THE INNATE IMMUNE RESPONSE AND/OR MYOGENESIS IN A MAMMALIAN SUBJECT” (FRED HUTCHINSON CANCER RESEARCH CENTER, priority 2011, published 2014).

Tested on: control human primary myoblasts
Test: Expression microarray of primary myoblasts transduced with lentivirus carrying DUX4-fl, DUX4-s or GFP
Procedure: Primary human myoblasts were collected and cultured as previously described (Snider et al., 2010). Primary myoblasts were maintained at or below 70% confluency for proliferation. For differentiation, cells were allowed to reach 95-100% confluency in growth medium. Once confluency was reached, the cells were changed to differentiation medium (F10 media supplemented with 1% horse serum, 10 μg/mL insulin, and 10 μg/mL transferrin, penicillin/streptomycin) and maintained for 4 days. Human RD cells were grown in DMEM in 10% bovine calf serum (Hyclone) and penicillin/streptomycin. The primary myoblasts were transduced with lentivirus carrying DUX-fl, DUX4- or GFP (MOI=15).
Expression microarrays were performed on the transduced cells at 24 hours after transduction as follows. […] Samples were analyzed by Illumina Human Whole Genome microarrays. Probe intensities were corrected, normalized, and summarized by the Lumi package of Bioconductor (Du et al., 2008). Differentially expressed genes were identified by the LIMMA package of Bioconductor (Wettenhall and Smyth, 2004). Gene set enrichment analysis (GSEA) was performed using the Bioconductor GOstats package (Falcon and Gentleman, 2007).

DUX4-fl: full-length DUX4 protein (SEQ ID NO:110), expressed from lentiviral or pCS2 vectors or in vitro translated
fc of DENND5A (expression array) (Refseq NM_015213.2): −1.037 | fc of FEM1B (expression array) (Refseq NM_015322.3): −0.5708 | fc of PANX1 (expression array) (Refseq NM_015368.3): −0.114 | fc of AASDHPPT (expression array) (Refseq NM_015423.2): −0.238 | MTHFD1L fc (Refseq NM_015440.3): −1.173 | C2orf32 fc (Refseq NM_015463.1): −1.1 | PVRL3 expression fc (Refseq NM_015480.1): 2.223 | NGDN expression fc (Refseq NM_015514.1): 2.058 | fc of RRM2B (expression array) (Refseq NM_015713.3): −1.01 | MBD2 expression fc (Refseq NM_015832.3): 1.818 | fc of MBTPS2 (expression array) (Refseq NM_015884.1): −0.6539 | ARS2 expression fc (Refseq NM_015908.4): 2.602 | GSTK1 fc (Refseq NM_015917.1): −1.079 | NOP58 expression fc (Refseq NM_015934.3): 1.887 | CRLF3 expression fc (Refseq NM_015986.2): 1.912 | fc of TTC15 (expression array) (Refseq NM_016030.5): −1.015 | ISOC1 expression fc (Refseq NM_016048.1): 2.003 | MED31 expression fc (Refseq NM_016060.2): 2.055 | fc of TRPV2 (expression array) (Refseq NM_016113.3): −1.02 | CERCAM fc (Refseq NM_016174.3): −1.121 | DBR1 expression fc (Refseq NM_016216.2): 3.379 | POLR3K expression fc (Refseq NM_016310.2): 1.95 | HERC5 expression fc (Refseq NM_016323.2, cultured human skeletal muscle): −3.202 | fc of CENPF (expression array) (Refseq NM_016343.3): −0.4122 | CWC15 expression fc (Refseq NM_016403.3): 2.643 | fc of TMEM9 (expression array) (Refseq NM_016456.2): −1.008 | RAB6B expression fc (Refseq NM_016577.3): 3.17 | SLC15A3 expression fc (Refseq NM_016582.1, cultured human skeletal muscle): −3.754 | FKBP11 fc (Refseq NM_016594.1): −1.125 | ARMCX1 fc (Refseq NM_016608.1): −1.116 | C8orf55 fc (Refseq NM_016647.2): −1.082 | HOXC13 fc (Refseq NM_017410.2): −1.107 | USP18 expression fc (Refseq NM_017414.3, cultured human skeletal muscle): −2.497 | PARP14 expression fc (Refseq NM_017554.1, cultured human skeletal muscle): −2.825 | fc of SLC43A3 (expression array) (Refseq NM_017611.2): −1.026 | NOTCH1 fc (Refseq NM_017617.3): −1.08 | KIF21A expression fc (Refseq NM_017641.2): 1.837 | fc of AHI1 (expression array) (Refseq NM_017651.3): −0.5927 | SAMD9 expression fc (Refseq NM_017654.2, cultured human skeletal muscle): −2.863 | FAM46C expression fc (Refseq NM_017709.3): 2.389 | RETSAT expression fc (Refseq NM_017750.2, cultured human skeletal muscle): −1.929 | LYAR expression fc (Refseq NM_017816.1): 1.977 | ZSCAN2 expression fc (Refseq NM_017894.4): 2.151 | HERC6 expression fc (Refseq NM_017912.3, cultured human skeletal muscle): −3.728 | PID1 fc (Refseq NM_017933.3): −1.128 | ZNHIT6 expression fc (Refseq NM_017953.2): 3.519 | C14orf102 expression fc (Refseq NM_017970.2): 2.529 | fc of WIPI1 (expression array) (Refseq NM_017983.4): −1.022 | RNF31 fc (Refseq NM_017999.4): −1.08 | FRMD4A fc (Refseq NM_018027.3): −1.164 | FAM90A1 expression fc (Refseq NM_018088.3): 3.636 | fc of RBM23 (expression array) (Refseq NM_018107.4): −1.022 | PNPO fc (Refseq NM_018129.2): −1.13 | SEC61A2 expression fc (Refseq NM_018144.2): 1.837 | NADSYN1 fc (Refseq NM_018161.4): −1.086 | TMEM140 expression fc (Refseq NM_018295.2, cultured human skeletal muscle): −2.946 | BRIX1 expression fc (Refseq NM_018321.3): 1.886 | DRAM1 fc (Refseq NM_018370.2): −1.087 | LSG1 expression fc (Refseq NM_018385.1): 1.994 | TBC1D2 fc (Refseq NM_018421.2): −1.075 | RRN3 expression fc (Refseq NM_018427.3): 2.068 | ZNF302 fc (Refseq NM_018443.2): −1.164 | fc of GLT8D1 (expression array) (Refseq NM_018446.2): −1.021 | BEX1 fc (Refseq NM_018476.3): −1.097 | SLC35E3 fc (Refseq NM_018656.2): −1.132 | DEFB103B expression fc (Refseq NM_018661.3): 2.499 | fc of SULF2 (expression array) (Refseq NM_018837.2): −1.048 | PDE7B fc (Refseq NM_018945.3): −1.116 | NANS expression fc (Refseq NM_018946.2): 1.872 | POLR1B expression fc (Refseq NM_019014.3): 1.904 | CCNJ expression fc (Refseq NM_019084.2): 2.695 | fc of HOXA5 (expression array) (Refseq NM_019102.2): −1.005 | PNO1 expression fc (Refseq NM_020143.2): 2.151 | KTELC1 fc (Refseq NM_020231.3): −1.073 | C1orf63 expression fc (Refseq NM_020317.3): 2.19 | ZMIZ1 fc (Refseq NM_020338.2): −1.165 | TRIM49 expression fc (Refseq NM_020358.2): 6.551 | LYRM1 fc (Refseq NM_020424.2): −1.126 | SLC44A2 fc (Refseq NM_020428.2): −1.158 | PCBP3 fc (Refseq NM_020528.1): −1.122 | NFKBIA expression fc (Refseq NM_020529.1, cultured human skeletal muscle): −3.004 | fc of RCN3 (expression array) (Refseq NM_020650.2): −1.062 | PELI1 expression fc (Refseq NM_020651.2): 2.886 | fc of FAM62B (expression array) (Refseq NM_020728.1): −0.7938 | HECW2 fc (Refseq NM_020760.1): −1.167 | ZNF319 fc (Refseq NM_020807.1): −1.119 | OSBPL8 expression fc (Refseq NM_020841.4): 1.95 | USP29 expression fc (Refseq NM_020903.2): 2.597 | fc of RNF213 (expression array) (Refseq NM_020914.3): −1.024 | fc of FAM160B1 (expression array) (Refseq NM_020940.3): −1.051 | fc of IGDCC4 (expression array) (Refseq NM_020962.1): −1.054 | RFPL1 expression fc (Refseq NM_021026.2): 6.264 | IFITM3 expression fc (Refseq NM_021034.2, cultured human skeletal muscle): −1.949 | NEFH expression fc (Refseq NM_021076.2): 1.936 | fc of SLC8A1 (expression array) (Refseq NM_021097.2): −0.4596 | PSAT1 fc (Refseq NM_021154.3): −1.076 | RAB40C fc (Refseq NM_021168.2): −1.168 | fc of SLC30A1 (expression array) (Refseq NM_021194.2): −0.3462 | CTDSP1 fc (Refseq NM_021198.1): −1.122 | ARHGAP22 fc (Refseq NM_021226.2): −1.084 | fc of NTN4 (expression array) (Refseq NM_021229.3): −1.022 | PELI2 expression fc (Refseq NM_021255.2): 2.782 | PLEKHA2 fc (Refseq NM_021623.1): −1.077 | AVPI1 expression fc (Refseq NM_021732.1): 2.022 | fc of FAM3A (expression array) (Refseq NM_021806.1): −1.022 | APOBEC3G expression fc (Refseq NM_021822.1, cultured human skeletal muscle): −2.012 | fc of C14orf93 (expression array) (Refseq NM_021944.1): −1.063 | HSPA2 expression fc (Refseq NM_021979.3): 3.67 | CXCL16 fc (Refseq NM_022059.1): −1.09 | NOD2 fc (Refseq NM_022162.1): −1.135 | IFIH1 expression fc (Refseq NM_022168.2, cultured human skeletal muscle): −3.705 | HS1BP3 fc (Refseq NM_022460.3): −1.078 | C14orf173 fc (Refseq NM_022489.2): −1.167 | FEZ1 fc (Refseq NM_022549.2): −1.073 | HIPK2 fc (Refseq NM_022740.2): −1.173 | fc of MOSC1 (expression array) (Refseq NM_022746.2): −1.034 | PARP12 expression fc (Refseq NM_022750.2, cultured human skeletal muscle): −3.165 | CRTC3 fc (Refseq NM_022769.3): −1.138 | FAM129B fc (Refseq NM_022833.2): −1.126 | IFI6 expression fc (Refseq NM_022872.2, cultured human skeletal muscle): −4.24 | FGFR3 expression fc (Refseq NM_022965.1): 3.112 | PRAMEF1 expression fc (Refseq NM_023013.1): 8.072 | PRAMEF2 expression fc (Refseq NM_023014.1): 6.439 | C8orf33 expression fc (Refseq NM_023080.1): 2.251 | GRAMD3 fc (Refseq NM_023927.1): −1.115 | NEUROG2 expression fc (Refseq NM_024019.2): 3.857 | NUP37 fc (Refseq NM_024057.2): −1.075 | PRRG4 expression fc (Refseq NM_024081.4): 2.369 | TRIM48 expression fc (Refseq NM_024114.2): 7.88 | DHX58 expression fc (Refseq NM_024119.2, cultured human skeletal muscle): −2.836 | PRKAG2 fc (Refseq NM_024429.1): −1.099 | fc of FAM65A (expression array) (Refseq NM_024519.2): −1.053 | fc of ZC3HAV1 (expression array) (Refseq NM_024625.3): −0.8233 | YRDC expression fc (Refseq NM_024640.3): 2.601 | NPEPL1 fc (Refseq NM_024663.3): −1.113 | SNIP1 expression fc (Refseq NM_024700.2): 2.104 | fc of FAM57A (expression array) (Refseq NM_024792.1): −1.045 | C13orf34 expression fc (Refseq NM_024808.2): 2.492 | fc of NUDT18 (expression array) (Refseq NM_024815.3): −1.034 | fc of ZNF672 (expression array) (Refseq NM_024836.1): −1.034 | C14orf159 expression fc (Refseq NM_024952.5, cultured human skeletal muscle): −2.07 | NRSN2 fc (Refseq NM_024958.1): −1.091 | SLC24A6 fc (Refseq NM_024959.2): −1.099 | CSRNP3 expression fc (Refseq NM_024969.2): 2.496 | fc of ULBP1 (expression array) (Refseq NM_025218.2): −1.025 | C6orf148 expression fc (Refseq NM_030568.2): 6.759 | KLHL15 expression fc (Refseq NM_030624.1): 3.373 | fc of ZBP1 (expression array) (Refseq NM_030776.1): −0.3281 | SLC2A10 fc (Refseq NM_030777.3): −1.119 | SYNC1 fc (Refseq NM_030786.1): −1.127 | PDRG1 expression fc (Refseq NM_030815.2): 1.783 | UNC93B1 expression fc (Refseq NM_030930.2, cultured human skeletal muscle): −1.961 | PPP1R14C expression fc (Refseq NM_030949.2): 3.049 | TRIM56 fc (Refseq NM_030961.1): −1.14 | fc of RNF146 (expression array) (Refseq NM_030963.2): −1.02 | ADPGK expression fc (Refseq NM_031284.3): 2.233 | C11orf68 fc (Refseq NM_031450.2): −1.142 | FAM107B expression fc (Refseq NM_031453.2): 2.529 | PARP9 expression fc (Refseq NM_031458.1, cultured human skeletal muscle): −2.098 | IFI27L2 fc (Refseq NM_032036.2): −1.137 | SFRS2B expression fc (Refseq NM_032102.2): 4.215
